Results as given in US8357733B2, “Processes for making silane, hydrophobated silica, silica masterbatch and rubber products” (Industrias Negromex, S.A. de C.V., priority 2008, dated 2013).

Assays:
[1] = Solubility of silanes in water-isopropanol mixtures; assay type: physicochemical; conditions: for Soluble?: water-isopropanol, 96.0 % water (wt.); for Water solubility: comparison methoxysilane vs ethoxysilane, see Table 4
Protocol: An aqueous solution of silane was prepared by charging to a vessel 4 grams of isopropanol, 0.7 grams of acetic acid and then 1.57 grams (4% by wt silica) of mercapto Propyl trimethoxysilane (Silquest A189). The mixture was then stirred vigorously at room temperature while 96 grams of water was slowly added. The mixture was then stirred for a further 15 minutes until the solution cleared.
The following experiments were conducted to examine the solubility of various silane coupling agents.

[2] = as above; assay type: physicochemical; conditions: for Soluble?: water-isopropanol

CO[Si](CCCSSCCC[Si](OC)(OC)OC)(OC)OC [TMSPD, bis-(3-trimethoxysilylpropyl)-disulfide]
Soluble? ([1]; pH 4.1): soluble | Soluble? ([1]; pH 4.1, listed as TMSPD (Present invention)): Yes | Solubility in 70/30 water/isopropanol mixture ([2]; TMSPD prepared using the Pletka process, no unusual precautions to purify the methanol): insoluble

CCO[Si](CCCSSCCC[Si](OCC)(OCC)OCC)(OCC)OCC [TESPD, bis-(3-triethoxysilylpropyl)-disulfide]
Solubility in the water-alcohol mixture ([1]; procedure of comparative example 1A (4 grams isopropanol, 0.7 grams acetic acid, 96 grams water), high purity TESPD): not soluble | Soluble? ([2]; 22.2 % water (wt.), pH 3.8): soluble and Yes | Soluble? ([2]; 27.8 % water (wt.), pH 3.5): insoluble and No

CCO[Si](CCCS)(OCC)OCC [MPTES, mercaptopropyltriethoxysilane]
Water solubility [1]: insoluble | Soluble? ([2]; 63.2 % water (wt.), pH 3.5-4.0): insoluble and No

CO[Si](CCCS)(OC)OC [MPTMS, mercaptopropyl trimethoxysilane]
Water solubility [1]: soluble | Soluble? ([1]; pH 3.5-4.0): soluble | Soluble? ([1]; pH 3.5-4.0, listed as MPTMS (A189)): Yes | Soluble? ([2]; 63.2 % water (wt.), pH 3.5-4.0): Yes
